Laboratory results reported in patent US12637498B2, “PDLIM2 as a biomarker for cancer and as an anti-cancer treatment target” (UNIVERSITY OF PITTSBURGH—OF THE COMMONWEALTH SYSTEM OF …, priority 2019, dated 2026).
Entries after “also recorded” stand apart in the source; their conditions may differ.

Experiments:
PDLIM2 [1] = assay: qPCR analysis of PDLIM2 in mouse MAD109 lung cancer cells; type: cell-based
PD-L1 [2] = assay: IHC staining of PD-L1 in lung cancer (urethane model); type: in vivo, mouse; conditions: 5-aza-dC and MS-275 together
Protocol: (§1) Urethane model: 6-8-week-old mice under FVB/N background were intraperitoneally (i.p.) injected with urethane (1 g/kg body weight, Sigma-Aldrich, St. Louis, MO, USA) once a week for six weeks. All mice were sacrificed for lung tumor examinations seven (for no drug treatment experiments) or six (for drug treatment experiments) weeks post urethane treatment. For drug treatment experiments, the epigenetic agents 5-aza-dC (1 mg/kg body weight, Sigma-Aldrich, St. Louis, MO, USA) and MS-275 (1 mg/kg body weight, Selleckchem, Houston, TX, USA), chemotherapeutic drugs carboplatin (30 mg/kg body weight, AdipoGen, San Diego, CA, USA) and paclitaxel (15 mg/kg body weight, AdipoGen, San Diego, CA, USA), and/or PD-1 neutralizing antibody (200 μg/mouse, BioXCell, West Lebanon, NH, USA) were i.p injected as indicated in FIG. 4. Surface tumors in mouse lungs were counted by three blinded readers under a dissecting microscope, and tumor diameters were measured by microcalipers. K-Ras^G12D model: 6-8-week-old mice under FVB/N background were intranasally administered 1×10^7 plaque-forming units of Cre-expressing adenovirus (adenocre; Gene Transfer Vector Core, University of Iowa, Iowa City, IA). Three months post AdenoCre treatment, all mice were sacrificed for lung tumor examinations.
Mouse or tissues were excised, fixed in formalin, embedded in paraffin, and cut into […] sections. Sections were stained with H&E, or subjected to sequential incubations with different primary antibodies and peroxidase-conjugated goat anti-rabbit secondary antibodies. The human lung tumor tissue arrays were described previously (Sun et al., Oncogene 35, 2299-2310 (2016)).
Lung tissues were excised, fixed in formalin, embedded in paraffin, and cut into 4-μm-thick sections. Sections were stained with H&E, or subjected to sequential incubations with the indicated primary antibodies, biotinylated secondary antibodies and streptavidin-HRP.

PD-L1 [3] = assay: qPCR of PD-L1 in lung cancer cells; type: cell-based, human; conditions: lung cancer cells
Description: Mouse lung tissues and BAL cells were subjected to RNA extraction, RNA reverse transcription and real-time PCR as described (Li et al., Oncoimmunology 7, e1435250 (2018); Sun et al., Bio. Protoc. 7, pii: e2287 (2017)).

PDLIM2 [4] = assay: IHC staining of PDLIM2 in mouse lung tumors and tissues (urethane model); type: in vivo
Protocol: as §1
Mouse or tissues were excised, fixed in formalin, embedded in paraffin, and cut into 4-pm-thick sections. […]

human lung cancer cells = assay: Cell growth assays; type: cell-based; conditions: human lung cancer cells with PDLIM2 knockdown (shRNA), in vitro
Protocol: Cells were seeded into 12-well plates at a density of 5,000 cells per well, in the presence or absence of the indicated treatment. Cell density was determined by replacing the medium with 2 μmol/L of calcein AM in 1× dissociation solution (Trevigen) at the indicated time points. After 1 h of incubation, diesterase activity (relative fluorescence units) was measured with a Tecan Infinite 200 Microplate Reader, using an excitation wavelength of 485 nm and emission wavelength of 520 nm.

[5] = test system: lung cancer induced by urethane; assay: Urethane model of lung cancer, tumor examination; type: in vivo, mouse; conditions: ΔSPC mice (lung epithelial PDLIM2 deletion), 5-aza-dC and MS275 combination therapy (Epi)
Protocol: as §1
PDLIM2flx/flx/SP-C-rtTAtg/−/(tetO)7CMV-Cretg/tg (ΔSPC) mice under a pure FVB/N background and PDLIM2−/− mice under a pure BABL/C background have been described before (Sun et al., Nat. Commun. 2019. 10, 5324). For lung carcinogenesis, six to eight week old ΔSPC and wild type FVB/N mice were intraperitoneally (i.p.) injected with urethane (1 mg/g body weight, Sigma-Aldrich, St. Louis, MO, USA) once a week for six consecutive weeks, followed by different treatment as shown in FIGS. 45A and 49A. Mice were sacrificed for lung inflammation and tumor examinations at six weeks post urethane treatment. Surface tumors in mouse lungs were counted blinded under a dissecting microscope, and tumor diameters were measured by microcalipers. […]

PDLIM2 [6] = assay: qPCR analysis of PDLIM2 expression in human lung cancer cell lines; type: cell-based
[7] = Toxicity: animal body weight and H&E staining of major organs; type: in vivo, mouse; conditions: mice with lung cancer; 1 mg/kg of 5-aza-dC and MS-275 twice per week for 6 weeks

Nc1ccccc1NC(=O)c1ccc(CNC(=O)OCc2cccnc2)cc1 [MS-275, entinostat]
PDLIM2 expression (qPCR) (PDLIM2 [1]): PDLIM2 re-induction
PD-L1 expression in lung cancer (IHC staining) (PD-L1 [2]): PD-L1 induction
PD-L1 expression (qPCR) (PD-L1 [3]): PD-L1 induction
PDLIM2 expression in murine lung cancers (PDLIM2 [4]; both in vitro and in vivo): could be restored
PDLIM2 expression in mouse lung tumor (IHC staining) (PDLIM2 [4]; urethane model, 5-aza-dC and MS-275 (epigenetic drugs) given together): PDLIM2 recovery
cell growth (human lung cancer cells): protected human lung cancer cells; also recorded: protection of human lung cancer cells
lung cancer treatment (tumor examination) [5]: completely lost the ability to treat lung cancer; also recorded: complete resistance
PDLIM2 expression (qPCR) (PDLIM2 [6]; H460 human lung cancer cells): PDLIM2 recovery; also recorded: time-dependent induction of PDLIM2
PDLIM2 expression (qPCR) (PDLIM2 [6]; human lung cancer cell lines): induction of PDLIM2
PDLIM2 expression (qPCR) (PDLIM2 [6]; human lung cancer cell lines, listed as MS275): induced PDLIM2 re-expression
PDLIM2 expression (qPCR) (PDLIM2 [6]; normal human lung epithelial cell line NL-20 with oncogenic K-Ras Q61H mutant): PDLIM2 re-induction
animal body weight [7]: body weight loss
